The text below walks through data of patent US7501281B2, “Compositions, methods and kits related to thrombin, Notch signaling and stamatogenesis and growth of stem cells” (Maine Medical Center Research Institute, priority 2003, dated 2009).

Marks after values point to notes of the source that are not given here.

The test system of one assay is NCSC populations. Description: Clonogenic differentiation and serial subcloning assays of NCSC clones (secondary NCSC). In kind it is cell-based, murine. Set-up: G / Sm / G + Sm: unit not given here. Particulars: for NCSC clones that did not express either gliogenic or neurogenic differentiation markers: after 7 days of expansion; for clones that were trifatent (neurons, glial, and smooth muscle progeny): secondary clones established from treated founder clones. On the procedure: Clonogenic assays were performed as described (Stemple et al., 1992, Cell 71:973-985). Briefly, populations of murine NCSC were plated at a clonal density and maintained for a maximum of 14 days in Morrison media supplemented with 15% chick embryo extract (Morrison et al., 1999, Cell 96:737-749). The resulting clones were fixed in an acetic acid:ethanol solution (2:1) and stained with antibodies against peripherin (Chemicon) to detect neurons, smooth muscle actin (Sigma) to detect myofibroblasts, and GFAP (Chemicon) to detect Schwann cells. Clones were scored based on the appearance of just one phenotypic representative. The number and percentage of clones containing neurons only (N), Schwann cells only (S), myofibroblasts only (M), N+S, N+M, N+S+M, and S+M were scored at day 14 unless otherwise stated. The production of each representative phenotype in each individual clone was also scored to complement the clonal population assay.
In order to generate secondary NCSC populations, founder clones originating from differentiating E10 clones at distinct time points during NCSC differentiation (days 2 through 18) were treated with trypsin and replated at a cell clonal density using methods previously described (Kubu et al., 2000, Genomics 70:150-152). The resulting cells were subjected to immunofluorescence microscopy using both p75^+ and P0^− antibodies (Kubu et al., 2000, Genomics 70:150-152) and the p75^+/P0^− cells identified as putative stem cells. All non-p75^+/P0^− cells were removed from the dish with a tungsten needle. The cultures of secondary NCSC clones were subjected to the clonogenic assay as described above.
Specifically, clonogenic differentiation and serial subcloning assays were performed using NCSC clones incubated with either thrombin, sDl1, sJ1 or TRAP.
Briefly, presented are the number of colonies with the resulting differentiation profiles (mean±SD of three experiments resulting from individual NCSC isolations).
A genetic approach was used to determine whether thrombin, TRAP, or sJ1 were able to promote cell cycle progression in the NCSC population. Thus, a dnFGFR1 construct was expressed in the NSC cells and the clonogenic differentiation assay conducted in the presence of either sJ1, thrombin or no additional supplement.

Assay [1] has as its system clonal cortical neurospheres. Description: Cortical neurosphere model, secondary sphere formation. It is filed as cell-based, murine. As to conditions: for F/SP × 10^2 / Cells/Founder (F) / Secondary Spheres (SP): day 10; for Cells/Founder (F): mean±SD; for Secondary Spheres (SP): from dissociation of founder spheres, mean±SD of three experiments; for secondary spheres per primary sphere: primary spheres grown 2 weeks with the factor, secondary spheres in standard media. An excerpt: The E14 prefrontal ventricular zone was dissected and plated at a clonal neurosphere-forming density in the presence of either sJ1, sDl1, thrombin, TRAP or no supplementation. After 2 weeks, the clones were dissociated to single cells and secondary spheres were generated using standard media with no supplementation (Reynolds et al., 1992, J. Neurosci. 12:4565-4574).
Secondary spheres (SP) are formed from the dissociation of founder (F) spheres. The data presented are the number of colonies (mean±SD of three experiments). (*=p≦0.05).

Assay [2] has as its system FGF1.A transcript in murine NCSC. Nature of the assay: RT-PCR analysis of FGF1.A mRNA expression in NCSC. It is filed as cell-based. Particulars: 48 hours; 7.5 nM sJ1, 5.0 nM sDl1, 10 μg/ml α-thrombin or 5 μg/ml TRAP.
Assay [3] has as its system neurosphere cultures and p75+/P0- neural crest stem cells. Nature of the assay: RT-PCR of self-renewal transcripts Nestin, Nucleostemin and Bmi1. It is filed as cell-based, murine. Particulars: for relative expression of Nestin, Nucleostemin and Bmi1 transcripts: primary and secondary neurosphere cultures. Here is the method: Clonal NCSC neurospheres were generated and allowed to expand for 10 days in either 7.5 nM sJ1, 5 nM sD1, 5 μg/ml α-thrombin, and no additive (control) (FIG. 13A) as described elsewhere herein. Clonal NCSC neurospheres were generated in a feeder-layer coculture system using a monolayer of stable full-length (FL) Jagged1 NIH 3T3 cell transfectants or insert-less NIH 3T3 cell transfectants and treated with either 5 μg/ml thrombin or without further supplementation (control) (FIG. 13B). The results are presented as representative photomicrographs of the spheres obtained under each condition after 14 days of treatment. […] Clonal neurospheres were generated in the presence of either 5 μg/ml α-thrombin, 7.5 nM sJ1, 5 nM sDl1 or no supplement (control) and expanded for 14 days. RT-PCR was used to determine the steady-state mRNA level for three markers of neural stem cells (Nestin, Nucleostemin and Bmi1). An increase in the expression of all three transcripts compared to control was observed. […] Approximately 5×10^2 NCSC were plated in Morrison media supplemented with either 7.5 nM sJ1, 5 μg/ml α-thrombin, 5 nM sD1, 2 ng/ml BMP2 or no additive (control) for 48 hours. The results are presented as the percent of control (mean±standard deviation of three RT-PCR experiments) performed in triplicate. No change in the steady-state level mRNA levels of the three markers relative to actin was observed.
RT-PCR was performed with 1 μg RNA using the Platinum Taq One Step RT-PCR kit (Invitrogen) as follows: RT (30 minutes at 50° C.), PCR (40 cycles at 94° C. for 15 seconds, at 58° C. for 30 seconds and 72° C. for 1 minute). All amplified cDNA was visualized with ethidium bromide followed by 1.5% agarose gel electrophoresis. RT-PCR analysis of fgf and gapdh was performed as previously described elsewhere herein. […] Each reaction product was measured as a ratio relative to the amplification product of actin and samples were run in triplicate. […]

The mark [4] stands for this setting: colonies from secondary NCSC, mean±SD.
[5] abbreviates: dnFGFR1-transduced NCSC, trifatent.
Setting [6] is: glial-only colonies from secondary NCSC, mean±SD.
Setting [7] is: secondary stem cells from NCSC founders after ten days of expansion, mean±SD.
The mark [8] stands for this setting: smooth muscle-only colonies from secondary NCSC, mean±SD.
Setting [9] is: trifatent colonies from secondary NCSC, mean±SD.

Turning to Thrombin, in the assay with NCSC populations, the “NCSC clones that did not express either gliogenic or neurogenic differentiation markers” value came to 75±11%; the “clones that were trifatent (neurons, glial, and smooth muscle progeny)” value (from here on “clones that were trifatent”) is reported as 86.8±2.1%. Moreover, in the assay with NCSC populations (setting [4]), the “G + Sm” value is 2.0 ± 2.1, the “N + G” value is 3.93 ± 3.8 and the “N + Sm” value turned out to be 4.5 ± 2.1. Also, in the assay with NCSC populations (dnFGFR1-transduced NCSC), the G amounted to 1.7 ± 3.1, the “G + Sm” value turned out to be 6.9 ± 8.3, the N is on record as 5.9 ± 1.7 and the “N + G” value is 9.8 ± 3.2. Moreover, in the assay on NCSC populations (dnFGFR1-transduced NCSC), the “N + Sm” value is 5.5 ± 1.5, the “Secondary NSSC/Founder” value amounted to 13.5 ± 2.9 and the Sm was found to be 24.13 ± 1.4. In addition, the “N + G + Sm” value in the assay on NCSC populations (setting [5]) was found to be 46.0 ± 13.6. Besides, the G in the assay with NCSC populations (setting [6]) is recorded as 0 ± 0. Moreover, in the assay with NCSC populations (setting [7]), the “Secondary NSSC/Founder” value amounted to 36.8 ± 6.3. The Sm in the assay with NCSC populations (setting [8]) came out at 2.6 ± 1.01. For the same molecule, in the assay on NCSC populations (setting [9]), the “N + G + Sm” value was 86.8 ± 2.1. Also, in assay [1], the “F/SP × 10^2” value is on record as 13%*, the “Cells/Founder (F)” value was 488 ± 166*, the “Secondary Spheres (SP)” value turned out to be 64 ± 11 and the “secondary spheres per primary sphere” value was found to be 55±14. Further, the “expression of the FGF1.A transcript” value in assay [2] is on record as “induced”. The “relative expression of Nestin, Nucleostemin and Bmi1 transcripts” value in assay [3] is listed as “elevated”.
Consider “sJ1: Soluble Jagged1, amino acid residues from about 1 to 1067 (SEQ ID NO:3) of full-length Jagged1”, for which, in the assay on NCSC populations, the “NCSC clones that did not express either gliogenic or neurogenic differentiation markers” value was 84±7%; the “clones that were trifatent” value stood at 74.1±9%. Further, in the assay with NCSC populations (setting [4]), the “G + Sm” value is recorded as 3.4 ± 2.8, the “N + G” value was determined as 7.0 ± 5.6 and the “N + Sm” value came to 1.5 ± 1.7. Further, in the assay with NCSC populations (dnFGFR1-transduced NCSC), the G is given as 9.3 ± 2.7, the “G + Sm” value came out at 10.3 ± 6.3, the “N + G” value was determined as 7.2 ± 4.5 and the “N + Sm” value was 6.2 ± 7.0. In addition, in the assay with NCSC populations (dnFGFR1-transduced NCSC), the “Secondary NSSC/Founder” value is 13.5 ± 4.7 and the Sm was 16.4 ± 8.5. Besides, the “N + G + Sm” value in the assay with NCSC populations (setting [5]) is on record as 48.0 ± 11.8. Further, the G in the assay with NCSC populations (setting [6]) is reported as 7.8 ± 1.4. Besides, the “Secondary NSSC/Founder” value with NCSC populations (setting [7]) is 26.2 ± 6. In the assay on NCSC populations (setting [8]), the Sm came to 6.2 ± 1.0. For the same molecule, in the assay on NCSC populations (setting [9]), the “N + G + Sm” value amounted to 74.1 ± 9.1. In addition, in assay [1], the “F/SP × 10^2” value is recorded as 10%*, the “Cells/Founder (F)” value is 527 ± 170*, the “Secondary Spheres (SP)” value worked out at 55 ± 14 and the “secondary spheres per primary sphere” value came to 64±11. For the same molecule, the “expression of the FGF1.A transcript” value in assay [2] was “induced”. Also, the “relative expression of Nestin, Nucleostemin and Bmi1 transcripts” value in assay [3] is reported as “elevated”.

B1: sDl1: soluble non-transmembrane form of the Notch ligand Delta1 (protein)
chain: QVWSSGVFELKLQEFVNKKGLLGNRNCCRGGAGPPPCACRTFFRVCLKHYQASVSPEPPCTYGSAVTPVLGVDSFSLPDGGGADSAFSNPIRFPFGFTWPGTFSLIIEALHTDSPDDLATENPERLISRLATQRHLTVGEEWSQDLHSSGRTDLKYSYRFVCDEHYYGEGCSVFCRPRDDAFGHFTCGERGEKVCNPGWKGPYCTEPICLPGCDEQHGFCDKPGECKCRVGWQGRYCDECIRYPGCLHGTCQQPWQCNCQEGWGGLFCNQDLNYCTHHKPCKNGATCTNTGQGSYTCSCRPGYTGATCELGIDECDPSPCKNGGSCTDLENSYSCTCPPGFYGKICELSAMTCADGPCFNGGRCSDSPDGGYSCRCPVGYSGFNCEKKIDYCSSSPCSNGAKCVDLGDAYLCRCQAGFSGRHCDDNVDDCASSPCANGGTCRDGVNDFSCTCPPGYTGRNCSAPVSRCEHAPCHNGATCHERGHRYVCECARGYGGPNCQFLLPELPPGPAVVDLTEKLEGQGGPFPW
modifications: left off: small tags and cut ends
notes: soluble non-transmembrane form of the Notch ligand Delta1
As to B1, in the assay with NCSC populations, the “NCSC clones that did not express either gliogenic or neurogenic differentiation markers” value is listed as 0±0%; the “clones that were trifatent” value was 0.5%. For the same molecule, in the assay with NCSC populations (setting [4]), the “G + Sm” value came to 3.4 ± 2.8, the “N + G” value is on record as 0 and the “N + Sm” value is on record as 0. Further, in the assay with NCSC populations (setting [6]), the G is on record as 72 ± 6.4. Moreover, the “Secondary NSSC/Founder” value with NCSC populations (setting [7]) is listed as 0.6 ± 1.0. The Sm in the assay with NCSC populations (setting [8]) worked out at 20.5 ± 6.5. For the same molecule, the “N + G + Sm” value in the assay on NCSC populations (setting [9]) was 0.5 ± 0.7. In assay [1], the “F/SP × 10^2” value is reported as 2.0%, the “Cells/Founder (F)” value is on record as 150 ± 69*, the “Secondary Spheres (SP)” value was determined as 3 ± 3 and the “secondary spheres per primary sphere” value is given as 3±3. In addition, the “expression of the FGF1.A transcript” value in assay [2] was “did not influence”. Further, the “levels of Nestin, Nucleostemin and Bmi1 transcripts” value in assay [3] (p75+/P0- neural crest stem cells, 24 and 48 hours) is given as “sharply decreased”.
